For experiment [1], the system named is ACE-1. The experiment is described as follows: ACE-1 protein and mRNA in rat lung tissue. Conditions: exercised rats. In kind it is in vivo. From the text: After a week of the adaptation period, the rats were divided into eight equal groups containing seven rats each. The initial body weights of the rats were similar in all the groups (214.53 grams ± 4.67; P > 0.05).
Groups 1 and 2 were not subjected to an exercise routine. Groups 3-8 were subjected to an exercise regimen consisting of a week training period with an incremental exercise capacity described below. After the week training period the exercise regimen followed was each rat in Groups 3-8 were subjected to 6 weeks of running at 25 m/min during 45 min […]. […] These correspond to 0, 250, 500, 1000, 2000 and 4000 mg per day for humans, respectively.
To determine the protein accumulation in the liver, muscle and lung samples, a Western Blotting test was used. Each of the tissue samples of the same group were pooled, homogenized, and sonicated in lysis buffer supplemented with 1X protease and phosphatase inhibitor cocktail (#5872, Cell Signaling). Total protein content was detected with Qubit 2.0 Fluorometer according to the manufacturer’s protocol (Invitrogen, Life Technologies Corporation, Carlsbad, CA, USA). […] Protein levels were analyzed densitometrically using an image analysis system (Image J; National Institute of Health, Bethesda, MD, USA), corrected with values determined on β-actin blots and expressed as relative values compared with the control group. […]

Experiment [2] concerns ACE-1. The experiment is described as follows: Human study, serum ELISA, ACE-1. The class given is in vivo. Particulars: 2 g daily L-carnitine tartrate, 5 weeks, before or after exercise challenge. As for the experimental part:
A human study was run with a total of 80 healthy male and female subjects ranging from 21 to 65 years of age, who were active (i.e. 30 minutes per day of moderate activity, 3 days per week) are randomized into two groups. […] Seventy-three subjects completed the trial and biomarker data were analyzed from the sera of the 73 completers. Sera were collected for analysis of C-Reactive Protein (CRP), ACE 1, ACE 2, TMPRSS 2, the Tumor Necrosis Factor alpha (TNF-alpha), and Furin at baseline in the beginning of the trial, at week 5 and 48 hr after an exercise challenge as described (Clinicaltrials.gov NCT04420377). The exercise challenge serves as surrogate to the inflammation stimulus.
To obtain human sera, venous blood was extracted by venipuncture of the antecubital vein using a 21-gauge syringe and collected into a 10 mL EDTA vacutainer tube (BD Vacutainer®, Becton, Dickinson and Company, Franklin Lakes, NJ) by a certified phlebotomist. […] Human ACE-1, ACE-2, TMPRSS2, Furin, CRP and TNF-alpha protein levels were assessed using commercially available ELISA kits, according the manufacturer recommendations, ACE-1 (R&D systems Inc., Minneapolis, MN, USA), ACE-2 (RayBiotech inc., Peachtree Corners, GA), TMPRSS2 (Novus Biologicals, Littleton, CO), CRP (R&D Systems Inc., Minneapolis, MN), TNF-alpha (Novus Biologicals, Littleton, CO), and Furin (Sigma Aldrich, St. Louis, MO). […]

Experiment [3] relates to ACE-2. Kind of experiment: ACE-2 surface protein in Calu-3 cells, flow cytometry. Conditions: Calu-3, 100 uM, 24-hr pre-treatment. The class given is cell-based, human. As for the experimental part:
ACE-2 surface expression protein in Calu-3 cells was evaluated using FACS flow cytometry sorting. […] Cells were detached with PBS/EDTA at room temperature. FBS-containing growth media was added to cells to inactivate TE. Cells were spun for 5 min at […]. Supernatant was removed and cells were washed twice in flow buffer (PBS+0.2% FBS). Between 100,000-200,000 cells were stained for ACE-2 and BST2 (absent in Calu-3and used as a control) for 30 min on ice using goat anti-ACE-2 (R&D Systems; AF933) and PE-conjugated BST2 (BioLegend; Cat # 348406). Cells were washed once and stained with Alexa Fluor 647 donkey anti-goat for 30 min on ice. Cells were washed once, resuspended in PBS/EDTA and samples were acquired on a FACS LSR Fortessa cytometer (BD Bioscience). Data were analyzed using Flowjo (Version 10.1).
The testing was repeated with D-Carnitine as well. Cells were either stained for ACE2 using either anti-ACE2 Ab, anti-BST2 Ab or the combination or both followed by secondary Ab isotype. […] The table represents the fluorescence counts.
In general terms: Flow cytometry measures light scatter and fluorescence of single cells or particles in a stream.

Each structure is given as a SMILES string. Entries after “also recorded” stand apart in the source; their conditions may differ.

`C[N+](C)(C)C[C@H](O)CC(=O)[O-]` [L-carnitine]: in experiment [1] (compared to the exercise control, without reaching the control levels), the “ACE-1 mRNA levels” value is reported as “increased”. Further, the ACE-1 protein levels entry in experiment [1] (lung, FIG. 6A, significantly lower than the baseline control levels) is “increase”. The ACE-1 serum levels result in experiment [2] was “no significant effect; also recorded: no significant interaction or main effect”. For the same compound, the “decrease in the ACE-2 protein at the cell surface” value in experiment [3] is listed as “about 75%”.

(Values after patent US20230346735A1, “Nutritional Composition Comprising Carnitine and Method for Treating or Preventing an Infection in a Mammal” (priority 2020, published 2023).)
